Data reported in patent US12291518B2, “Thyroid hormone receptor agonists and use thereof” (Eccogene Inc., priority 2020, dated 2025).

Key:
THR alpha-LBD = biological target: T1, THR alpha-LBD (Homo sapiens, UniProt P10827); test: THR-α Coactivator Peptide Recruitment Assay (LanthaScreen TR-FRET); type: biochemical; conditions: TR-FRET coactivator recruitment, THR alpha-LBD 0.25 nM; for EC50: read-out: THRα EC50
T1 construct: except that THR alpha-LBD of a final concentration 0.25 nM was used; purchased Invitrogen PV4687
How it was run: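 TR-FRET coactivator recruitment with THR alpha-LBD at 0.25 nM final, Fluorescein-SRC2-2 peptide 0.1 nM and Tb-labeled anti-GST antibody 2 nM; 2 h incubation at room temperature. 520/495 nm emission ratio fitted to a four-parameter sigmoidal curve to give EC50.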

THR beta-LBD = biological target: T2, THR beta-LBD (Homo sapiens, UniProt P10828); test: THR-β Coactivator Peptide Recruitment Assay (LanthaScreen TR-FRET); type: biochemical; conditions: TR-FRET coactivator recruitment, THR beta-LBD 0.5 nM; for EC50: read-out: THRβ EC50
T2 construct: THR beta-LBD (the final concentration is 0.5 nM) was added to the 384-well assay plate; purchased Invitrogen PV4686
T2 sequence (P10828 217-461 limits assumed): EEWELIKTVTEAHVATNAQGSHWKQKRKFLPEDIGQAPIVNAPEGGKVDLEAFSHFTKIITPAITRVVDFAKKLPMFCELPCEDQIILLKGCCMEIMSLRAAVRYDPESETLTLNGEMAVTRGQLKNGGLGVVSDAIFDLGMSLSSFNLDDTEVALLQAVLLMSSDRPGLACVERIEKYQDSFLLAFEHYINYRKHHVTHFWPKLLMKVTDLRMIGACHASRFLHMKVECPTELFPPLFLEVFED
How it was run: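 GST-tagged THR beta-LBD (0.5 nM) with test compound recruits fluorescein-SRC2-2 coactivator peptide (0.1 nM), detected with Tb-anti-GST antibody (2 nM).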

T1 sequence (P10827 163-410 isoform P10827-2 limits assumed, other chains not shown): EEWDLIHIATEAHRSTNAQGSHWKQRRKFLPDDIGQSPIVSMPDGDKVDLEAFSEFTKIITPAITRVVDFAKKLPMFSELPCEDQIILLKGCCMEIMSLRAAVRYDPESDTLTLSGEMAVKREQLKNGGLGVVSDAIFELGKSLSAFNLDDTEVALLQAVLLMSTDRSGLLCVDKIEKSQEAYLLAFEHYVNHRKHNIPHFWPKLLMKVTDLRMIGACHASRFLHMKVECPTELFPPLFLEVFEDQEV

| SMILES | THRα Emax (THR alpha-LBD) | EC50 (THR alpha-LBD) | THRβ Emax (THR beta-LBD) | EC50 (THR beta-LBD) |
| --- | --- | --- | --- | --- |
| COCC1(NS(=O)(=O)c2cc(Oc3c(Cl)cc(-n4nc(C(F)F)c(=O)[nH]c4=O)cc3Cl)ncc2O)CC1 [Compound 103, 2-(2,6-dichloro-4-(6-(difluoromethyl)-3,5-dioxo-4,5-dihydro-1,2,4-triazin-2(3H)-yl)phenoxy)-5-hydroxy-N-(1-(methoxymethyl)cyclopropyl)pyridine-4-sulfonamide] | B (40~85) | > 1 µM | C (<75) | 0.002 to 0.02 µM |
| O=c1[nH]c(=O)n(-c2cc(Cl)c(Oc3cc(S(=O)(=O)N[C@H]4CCOC4)c(O)cn3)c(Cl)c2)nc1C(F)F [Compound 104, (S)-2-(2,6-dichloro-4-(6-(difluoromethyl)-3,5-dioxo-4,5-dihydro-1,2,4-triazin-2(3H)-yl)phenoxy)-5-hydroxy-N-(tetrahydrofuran-3-yl)pyridine-4-sulfonamide] | B (40~85) | 0.002 to 0.2 µM | B (75~90) | < 0.002 µM |
| O=c1[nH]c(=O)n(-c2cc(Cl)c(Oc3cc(S(=O)(=O)NC4CC(F)(F)C4)c(O)cn3)c(Cl)c2)nc1C(F)F [Compound 105, 2-(2,6-dichloro-4-(6-(difluoromethyl)-3,5-dioxo-4,5-dihydro-1,2,4-triazin-2(3H)-yl)phenoxy)-N-(3,3-difluorocyclobutyl)-5-hydroxypyridine-4-sulfonamide] | A (85~110) | 0.002 to 0.2 µM | B (75~90) | < 0.002 µM |
| O=c1[nH]c(=O)n(-c2cc(Cl)c(Oc3cc(S(=O)(=O)N[C@@H]4CCOC4)c(O)cn3)c(Cl)c2)nc1C(F)F [Compound 106, (R)-2-(2,6-dichloro-4-(6-(difluoromethyl)-3,5-dioxo-4,5-dihydro-1,2,4-triazin-2(3H)-yl)phenoxy)-5-hydroxy-N-(tetrahydrofuran-3-yl)pyridine-4-sulfonamide] | A (85~110) | 0.002 to 0.2 µM | B (75~90) | 0.002 to 0.02 µM |
| O=c1[nH]c(=O)n(-c2cc(Cl)c(Oc3cc(S(=O)(=O)N4CC(O)C4)c(O)cn3)c(Cl)c2)nc1C(F)F [Compound 107, 2-(3,5-dichloro-4-((5-hydroxy-4-((3-hydroxyazetidin-1-yl)sulfonyl)pyridin-2-yl)oxy)phenyl)-6-(difluoromethyl)-1,2,4-triazine-3,5(2H,4H)-dione] | B (40~85) | 0.002 to 0.2 µM | B (75~90) | 0.002 to 0.02 µM |
| O=c1[nH]c(=O)n(-c2cc(Cl)c(Oc3cc(S(=O)(=O)N4CC[C@H](O)C4)c(O)cn3)c(Cl)c2)nc1C(F)F [Compound 108, (S)-2-(3,5-dichloro-4-((5-hydroxy-4-((3-hydroxypyrrolidin-1-yl)sulfonyl)pyridin-2-yl)oxy)phenyl)-6-(difluoromethyl)-1,2,4-triazine-3,5(2H,4H)-dione] | B (40~85) | 0.002 to 0.2 µM | B (75~90) | 0.002 to 0.02 µM |
| O=c1[nH]c(=O)n(-c2cc(Cl)c(Oc3cc(S(=O)(=O)N4CC(F)(F)C4)c(O)cn3)c(Cl)c2)nc1C(F)F [Compound 109, 2-(3,5-dichloro-4-((4-((3,3-difluoroazetidin-1-yl)sulfonyl)-5-hydroxypyridin-2-yl)oxy)phenyl)-6-(difluoromethyl)-1,2,4-triazine-3,5(2H,4H)-dione] | A (85~110) | 0.002 to 0.2 µM | B (75~90) | < 0.002 µM |
| CC(C)NS(=O)(=O)c1cc(Oc2c(Cl)cc(-n3nc(C(F)F)c(=O)[nH]c3=O)cc2Cl)ncc1O [Compound 110, 2-(2,6-dichloro-4-(6-(difluoromethyl)-3,5-dioxo-4,5-dihydro-1,2,4-triazin-2(3H)-yl)phenoxy)-5-hydroxy-N-isopropylpyridine-4-sulfonamide] | A (85~110) | 0.002 to 0.2 µM | A (90~110) | < 0.002 µM |
| O=c1[nH]c(=O)n(-c2cc(Cl)c(Oc3cc(S(=O)(=O)NCC(F)F)c(O)cn3)c(Cl)c2)nc1C(F)F [Compound 111, 2-(2,6-dichloro-4-(6-(difluoromethyl)-3,5-dioxo-4,5-dihydro-1,2,4-triazin-2(3H)-yl)phenoxy)-N-(2,2-difluoroethyl)-5-hydroxypyridine-4-sulfonamide] | A (85~110) | 0.002 to 0.2 µM | A (90~110) | < 0.002 µM |
| CCNS(=O)(=O)c1cc(Oc2c(Cl)cc(-n3nc(C(F)F)c(=O)[nH]c3=O)cc2Cl)ncc1O [Compound 112, 2-(2,6-dichloro-4-(6-(difluoromethyl)-3,5-dioxo-4,5-dihydro-1,2,4-triazin-2(3H)-yl)phenoxy)-N-ethyl-5-hydroxypyridine-4-sulfonamide] | A (85~110) | 0.002 to 0.2 µM | A (90~110) | < 0.002 µM |
| CN(C)S(=O)(=O)c1cc(Oc2c(Cl)cc(-n3nc(C(F)F)c(=O)[nH]c3=O)cc2Cl)ncc1O [Compound 113, 2-(2,6-dichloro-4-(6-(difluoromethyl)-3,5-dioxo-4,5-dihydro-1,2,4-triazin-2(3H)-yl)phenoxy)-5-hydroxy-N,N-dimethylpyridine-4-sulfonamide] | A (85~110) | 0.002 to 0.2 µM | B (75~90) | < 0.002 µM |
| N#Cc1nn(-c2cc(Cl)c(Oc3cc(S(=O)(=O)NC4CC4)c(O)cn3)c(Cl)c2)c(=O)[nH]c1=O [Compound 114, N-cyclopropyl-2-(2,6-dichloro-4-(6-cyano-3,5-dioxo-4,5-dihydro-1,2,4-triazin-2(3H)-yl)phenoxy)-5-hydroxypyridine-4-sulfonamide] | A (85~110) | 0.002 to 0.2 µM | A (90~110) | < 0.002 µM |
| O=C(NC1CCC1)C1(NS(=O)(=O)c2cc(Oc3c(Cl)cc(-n4nc(C(F)F)c(=O)[nH]c4=O)cc3Cl)ncc2O)CC1 [Compound 115, N-cyclobutyl-1-[[2-[2,6-dichloro-4-[6-(difluoromethyl)-3,5-dioxo-1,2,4-triazin-2-yl]phenoxy]-5-hydroxy-4-pyridyl]sulfonylamino]cyclopropanecarboxamide] | B (40~85) | > 1 µM | C (<75) | 0.002 to 0.02 µM |
| O=C(NC1CCCC1)C1(NS(=O)(=O)c2cc(Oc3c(Cl)cc(-n4nc(C(F)F)c(=O)[nH]c4=O)cc3Cl)ncc2O)CC1 [Compound 116, N-cyclopentyl-1-((2-(2,6-dichloro-4-(6-(difluoromethyl)-3,5-dioxo-4,5-dihydro-1,2,4-triazin-2(3H)-yl)phenoxy)-5-hydroxypyridine)-4-sulfonamido)cyclopropane-1-carboxamide] | B (40~85) | > 1 µM | C (<75) | 0.02 to 0.1 µM |
| O=C(NCC(F)F)C1(NS(=O)(=O)c2cc(Oc3c(Cl)cc(-n4nc(C(F)F)c(=O)[nH]c4=O)cc3Cl)ncc2O)CC1 [Compound 117, 1-((2-(2,6-dichloro-4-(6-(difluoromethyl)-3,5-dioxo-4,5-dihydro-1,2,4-triazin-2(3H)-yl)phenoxy)-5-hydroxypyridine)-4-sulfonamido)-N-(2,2-difluoroethyl)cyclopropane-1-carboxamide] | C (<40) | > 1 µM | C (<75) | 0.02 to 0.1 µM |
| O=C(N1CCCC1)C1(NS(=O)(=O)c2cc(Oc3c(Cl)cc(-n4nc(C(F)F)c(=O)[nH]c4=O)cc3Cl)ncc2O)CC1 [Compound 118, 2-(2,6-dichloro-4-(6-(difluoromethyl)-3,5-dioxo-4,5-dihydro-1,2,4-triazin-2(3H)-yl)phenoxy)-5-hydroxy-N-(1-(pyrrolidine-1-carbonyl)cyclopropyl)pyridine-4-sulfonamide] | C (<40) | > 1 µM | B (75~90) | > 0.1 µM |
| O=C(CNS(=O)(=O)c1cc(Oc2c(Cl)cc(-n3nc(C(F)F)c(=O)[nH]c3=O)cc2Cl)ncc1O)NC1CCC1 [Compound 119, N-cyclobutyl-2-[[2-[2,6-dichloro-4-[6-(difluoromethyl)-3,5-dioxo-1,2,4-triazin-2-yl]-phenoxy]-5-hydroxy-4-pyridyl]-sulfonylamino]-acetamide] | C (<40) | > 1 µM | C (<75) | > 0.1 µM |
| O=C(CNS(=O)(=O)c1cc(Oc2c(Cl)cc(-n3nc(C(F)F)c(=O)[nH]c3=O)cc2Cl)ncc1O)NC1CC1 [Compound 120, N-cyclopropyl-2-((2-(2,6-dichloro-4-(6-(difluoromethyl)-3,5-dioxo-4,5-dihydro-1,2,4-triazin-2(3H)-yl)phenoxy)-5-hydroxypyridine)-4-sulfonamido)acetamide] | C (<40) | > 1 µM | C (<75) | > 0.1 µM |
